According to patent US10538555B2, “Macrocyclic inhibitors of the PD-1/PD-L1 and CD80(B7-1)/PD-L1 protein/protein interactions” (BRISTOL-MYERS SQUIBB COMPANY, priority 2014, dated 2020):
Read-outs that look alike come from different tables or passages of the source. *1 amine or outer side, *2 acyl side, *3 side chain or, on linkers, in order; H or OH if unused. Where a SMILES comes first, the peptide text is derived from it. Bridges are numbered along the chain shown (N, C = ends). [ ]: non-standard residue; d: D form. ξ: configuration not given here. Trp(1-CH2COOH) = N[C@@H](Cc1cn(CC(=O)O)c2ccccc12)C(=O)O; Trp(βS-Me) = C[C@@H](c1c[nH]c2ccccc12)[C@H](N)C(=O)O; Phe(3,4,5-F3) = N[C@@H](Cc1cc(F)c(F)c(F)c1)C(=O)O; NMePhe(4-F) = CN[C@@H](Cc1ccc(F)cc1)C(=O)O; d(cisHyp) = O=C(O)[C@H]1C[C@@H](O)CN1; Bta = N[C@@H](Cc1csc2ccccc12)C(=O)O; Hyp = O=C(O)[C@@H]1C[C@@H](O)CN1; NMeF = CN[C@@H](Cc1ccccc1)C(=O)O; X1 = O=C([C@H]1COCCN1[*:1])[*:2]; NMeE = CN[C@@H](CCC(=O)O)C(=O)O; dHyp = O=C(O)[C@H]1C[C@H](O)CN1; NMehSer = CN[C@@H](CCO)C(=O)O; NMeNle = CCCC[C@H](NC)C(=O)O; Pip = O=C(O)[C@@H]1CCCCN1; hSer = N[C@@H](CCO)C(=O)O; NMeA = CN[C@@H](C)C(=O)O; Orn = NCCC[C@H](N)C(=O)O; dNMeA = CN[C@H](C)C(=O)O; Dab = NCC[C@H](N)C(=O)O; Dap = NC[C@H](N)C(=O)O; ξPip = O=C(O)C1CCCCN1; ξC = NC(CS)C(=O)O

Target: T1, Human PD-L1/PD-1 (Homo sapiens, UniProt Q9NZQ7)
T1 construct: TVMV protease cleavage site (C); made in house; host or cells: HEK293T cells
Assay: HTRF Human PD-L1/PD-1 binding assay (PD-1-Ig/PD-L1-His)
Settings: PD-L1-His 10 nM, PD-1-Ig 20 nM
Outline: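 Inhibitors were preincubated 15 min with human PD-L1(18-239)-His (10 nM final), then PD-1(25-167)-Ig (20 nM final) was added for 15 min in dPBS/0.1% BSA/0.05% Tween-20. Eu-cryptate anti-Ig (1 nM) and APC anti-His (20 nM) were added; 665/620 nm ratio read after 30 min.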

[1] = class symbol, read-out: HTRF Human PD-L1/PD-1 Binding Assay IC50 Range

T1 sequence (Q9NZQ7 with tags, fused parts or gaps): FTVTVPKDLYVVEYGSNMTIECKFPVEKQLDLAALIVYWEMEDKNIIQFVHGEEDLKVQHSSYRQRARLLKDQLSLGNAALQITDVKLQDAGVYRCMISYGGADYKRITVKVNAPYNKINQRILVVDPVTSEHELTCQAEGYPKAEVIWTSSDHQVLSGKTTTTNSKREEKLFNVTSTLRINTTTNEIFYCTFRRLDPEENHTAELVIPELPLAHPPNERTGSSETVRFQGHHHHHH

CC(C)[C@@H]1NC(=O)[C@H](CCC(=O)O)NC(=O)[C@@H](C)N(C)C(=O)[C@H](C)N(C)C(=O)[C@H](Cc2ccccc2)N(C)C(=O)[C@H](Cc2cc(F)c(F)c(F)c2)NC(=O)CSC[C@@H](C(=O)NCC(N)=O)NC(=O)[C@H](CCCN)NC(=O)[C@H](Cc2ccc(O)cc2)NC(=O)[C@H](Cc2c[nH]c3ccccc23)NC(=O)[C@@H](C)N(C)C(=O)[C@H](Cc2ccc(O)cc2)NC(=O)[C@H](Cc2ccccc2)N(C)C1=O [Example 9194] ({CH2CO}-[Phe(3,4,5-F3)][NMeF][NMeA][dNMeA]EV[NMeF]Y[dNMeA]WY[Orn]CG-NH2; thioether N-13)
IC50 [1]: 1 to 9.9 nM

CCCC[C@H]1C(=O)N2C[C@H](O)C[C@@H]2C(=O)N[C@@H](CC(=O)O)C(=O)N[C@@H](C(C)C)C(=O)N(C)[C@@H](Cc2ccccc2)C(=O)N[C@@H](CCC(N)=O)C(=O)N2C[C@H](O)C[C@@H]2C(=O)N[C@@H](Cc2c[nH]c3ccccc23)C(=O)N[C@@H](Cc2ccc(O)cc2)C(=O)N[C@@H](CN)C(=O)N[C@H](C(=O)NCC(N)=O)CSCC(=O)N[C@@H](Cc2cc(F)c(F)c(F)c2)C(=O)N(C)[C@@H](Cc2ccccc2)C(=O)N1C [Example 9356] ({CH2CO}-[Phe(3,4,5-F3)][NMeF][NMeNle][d(cisHyp)]DV[NMeF]Q[d(cisHyp)]WY[Dap]CG-NH2; thioether N-13)
IC50 (read-out: HTRF Human PD-L1/PD-1 Binding Assay IC50): 151 nM

CCCC[C@H]1C(=O)N2C[C@H](O)C[C@@H]2C(=O)N[C@@H](CC(=O)O)C(=O)N[C@@H](C(C)C)C(=O)N(C)[C@@H](Cc2ccccc2)C(=O)N[C@@H](CCC(=O)O)C(=O)N2CCOC[C@@H]2C(=O)N[C@@H](Cc2c[nH]c3ccccc23)C(=O)N[C@@H](Cc2ccc(O)cc2)C(=O)N[C@@H](CCCN)C(=O)N[C@H](C(=O)NCC(N)=O)CSCC(=O)N[C@@H](Cc2cc(F)c(F)c(F)c2)C(=O)N(C)[C@@H](Cc2ccc(F)cc2)C(=O)N1C [Example 10590] ({CH2CO}-[Phe(3,4,5-F3)][NMePhe(4-F)][NMeNle][d(cisHyp)]DV[NMeF]E[X1]WY[Orn]CG-NH2; thioether N-13)
IC50 [1]: 1 to 9.9 nM

CCCC[C@H]1C(=O)N(C)[C@@H](CCCC)C(=O)N[C@@H](CCCN)C(=O)N[C@H](C(=O)NCC(N)=O)CSCC(=O)N[C@@H](Cc2ccc(O)cc2)C(=O)N2CCNC[C@H]2C(=O)N[C@@H](CC(N)=O)C(=O)N2CCC[C@H]2C(=O)N[C@@H](Cc2c[nH]cn2)C(=O)N[C@@H](CC(C)C)C(=O)N2C[C@H](O)C[C@H]2C(=O)N[C@@H](Cc2c[nH]c3ccccc23)C(=O)N[C@@H](CO)C(=O)N[C@@H](Cc2c[nH]c3ccccc23)C(=O)N1C [Example 1535]
IC50 [1]: 10 to 99.9 nM

CCCC[C@H]1C(=O)N(C)[C@@H](CCCC)C(=O)N[C@@H](CC(C)C)C(=O)N[C@H](C(=O)NCC(N)=O)CSCC(=O)N[C@@H](Cc2ccc(O)cc2)C(=O)N(C)[C@@H](C)C(=O)N[C@@H](CC(N)=O)C(=O)N2CCC[C@H]2C(=O)N[C@@H](Cc2c[nH]cn2)C(=O)N[C@@H](CCC(=O)O)C(=O)N2C[C@H](O)C[C@H]2C(=O)N[C@@H]([C@@H](C)c2c[nH]c3ccccc23)C(=O)N[C@@H](CCN)C(=O)N[C@@H](Cc2c[nH]c3ccccc23)C(=O)N1C [Example 10555] ({CH2CO}-Y[NMeA]NPHE[Hyp][Trp(βS-Me)][Dab]W[NMeNle][NMeNle]LCG-NH2; thioether N-14)
IC50 [1]: 1 to 9.9 nM

CCCC[C@H]1C(=O)N2C[C@H](O)C[C@@H]2C(=O)N[C@@H](CC(=O)O)C(=O)N[C@@H](C(C)C)C(=O)N(C)[C@@H](Cc2ccccc2)C(=O)N[C@@H](CCC(=O)O)C(=O)N2CCC[C@@H]2C(=O)N[C@@H](Cc2c[nH]c3ccccc23)C(=O)N[C@@H](Cc2ccc(O)cc2)C(=O)N[C@@H](CCCN)C(=O)N[C@H](C(=O)NCC(N)=O)CSCC(=O)N[C@@H](Cc2cc(F)c(F)c(F)c2)C(=O)N(C)[C@@H](Cc2ccccc2)C(=O)N1C [Example 3646] ({CH2CO}-[Phe(3,4,5-F3)][NMeF][NMeNle][d(cisHyp)]DV[NMeF]E[dP]WY[Orn]CG-NH2; thioether N-13)
IC50 [1]: 10 to 99.9 nM

COCC[C@H]1C(=O)N2C[C@@H](O)C[C@@H]2C(=O)N[C@@H](CC(=O)O)C(=O)N[C@@H](C(C)C)C(=O)N(C)[C@@H](Cc2ccccc2)C(=O)N[C@@H](Cc2ccc(O)cc2)C(=O)N2CCOC[C@@H]2C(=O)N[C@@H](Cc2c[nH]c3ccccc23)C(=O)N[C@@H](Cc2ccc(O)cc2)C(=O)N[C@@H](CC(C)C)C(=O)N[C@H](C(=O)NCC(N)=O)CSCC(=O)N[C@@H](Cc2cc(F)c(F)c(F)c2)C(=O)N(C)[C@@H](Cc2ccccc2)C(=O)N1C [Example 9264] ({CH2CO}-[Phe(3,4,5-F3)][NMeF][NMehSer](Me)[dHyp]DV[NMeF]Y[X1]WYLCG-NH2; thioether N-13)
IC50 [1]: 1 to 9.9 nM

CCCC[C@H]1C(=O)N(C)[C@@H](CCCC)C(=O)N[C@@H](C)C(=O)N[C@H](C(=O)NCC(N)=O)CSCC(=O)N[C@@H](Cc2ccc(O)cc2)C(=O)N2CCOC[C@H]2C(=O)N[C@@H](CC(=O)O)C(=O)N2CCC[C@H]2C(=O)N[C@@H](Cc2c[nH]cn2)C(=O)N[C@@H](CC(C)C)C(=O)N2C[C@H](O)C[C@H]2C(=O)N[C@@H](Cc2c[nH]c3ccccc23)C(=O)N[C@@H](CO)C(=O)N[C@@H](Cc2c[nH]c3ccccc23)C(=O)N1C [Example 1525]
IC50 [1]: 1 to 9.9 nM

CCCC[C@H]1C(=O)N(C)[C@@H](CCCC)C(=O)N[C@@H](CCCNC(=N)N)C(=O)NC(C(=O)NCC(N)=O)CSCC(=O)N[C@@H](Cc2ccc(O)cc2)C(=O)N(C)[C@@H](C)C(=O)N[C@@H](Cc2cnc[nH]2)C(=O)N2CCC[C@H]2C(=O)N[C@@H](CC(N)=O)C(=O)N[C@@H](CC(C)C)C(=O)N2C[C@H](O)C[C@H]2C(=O)N[C@@H](Cc2c[nH]c3ccccc23)C(=O)N[C@@H](CO)C(=O)N[C@@H](Cc2csc3ccccc23)C(=O)N1C (stereo partly drawn) [Example 9147] ({CH2CO}-Y[NMeA]HPNL[Hyp]WS[Bta][NMeNle][NMeNle]R[ξC]G-NH2; thioether N-14)
IC50 [1]: 1 to 9.9 nM

CCCC[C@H]1C(=O)N(C)[C@@H](CCCC)C(=O)N[C@@H](CCC(=O)O)C(=O)N[C@H](C(=O)NCC(N)=O)CSCC(=O)N[C@@H](Cc2ccc(O)cc2)C(=O)N(C)[C@@H](C)C(=O)N[C@@H](CC(=O)O)C(=O)N2CCC[C@H]2C(=O)N[C@@H](CO)C(=O)N[C@@H](CCC(=O)O)C(=O)N2C[C@H](O)C[C@H]2C(=O)N[C@@H](Cc2c[nH]c3ccccc23)C(=O)N[C@@H](CO)C(=O)N[C@@H](Cc2c[nH]c3ccccc23)C(=O)N1C [Example 5233] ({CH2CO}-Y[NMeA]DPSE[Hyp]WSW[NMeNle][NMeNle]ECG-NH2; thioether N-14)
IC50 [1]: 1 to 9.9 nM

CCCC[C@H]1C(=O)N(C)[C@@H](CCCC)C(=O)N[C@@H](C)C(=O)N[C@H](C(=O)NCC(N)=O)CSCC(=O)N[C@@H](Cc2ccc(O)cc2)C(=O)N2CCCC[C@H]2C(=O)N[C@@H](CC(=O)O)C(=O)N2CCC[C@H]2C(=O)N[C@@H](CN)C(=O)N[C@@H](CCC(N)=O)C(=O)N2C[C@H](O)C[C@H]2C(=O)N[C@@H](Cc2c[nH]c3ccccc23)C(=O)N[C@@H](CO)C(=O)N[C@@H](Cc2c[nH]c3ccccc23)C(=O)N1C [Example 1257] ({CH2CO}-Y[Pip]DP[Dap]Q[Hyp]WSW[NMeNle][NMeNle]ACG-NH2; thioether N-14)
IC50 [1]: 1 to 9.9 nM

CCCC[C@H]1C(=O)N(C)[C@@H](CCC(=O)O)C(=O)N[C@@H](CN)C(=O)N[C@H](C(=O)NCC(N)=O)CSCC(=O)N[C@@H](Cc2ccc(O)cc2)C(=O)N(C)[C@@H](C)C(=O)N[C@@H](CC(N)=O)C(=O)N2CCC[C@H]2C(=O)N[C@@H](Cc2c[nH]cn2)C(=O)N[C@@H](CCC(=O)O)C(=O)N2C[C@H](O)C[C@H]2C(=O)N[C@@H](Cc2c[nH]c3ccccc23)C(=O)N[C@@H](CCN)C(=O)N[C@@H](Cc2c[nH]c3ccccc23)C(=O)N1C [Example 5249] ({CH2CO}-Y[NMeA]NPHE[Hyp]W[Dab]W[NMeNle][NMeE][Dap]CG-NH2; thioether N-14)
IC50 [1]: 10 to 99.9 nM

CCCC[C@H]1C(=O)N(C)[C@@H](CCCC)C(=O)N[C@@H](CCCN)C(=O)N[C@H](C(=O)NCC(N)=O)CSCC(=O)N[C@@H](Cc2ccc(O)cc2)C(=O)N2CCCCC2C(=O)N[C@@H](CC(=O)O)C(=O)N2CCC[C@H]2C(=O)N[C@@H](CN)C(=O)N[C@@H](CCC(=O)O)C(=O)N2C[C@H](O)C[C@H]2C(=O)N[C@@H](Cc2c[nH]c3ccccc23)C(=O)N[C@@H](CO)C(=O)N[C@@H](Cc2c[nH]c3ccccc23)C(=O)N1C (stereo partly drawn) [Example 1530] ({CH2CO}-Y[ξPip]DP[Dap]E[Hyp]WSW[NMeNle][NMeNle][Orn]CG-NH2; thioether N-14)
IC50 [1]: 10 to 99.9 nM

CCCC[C@H]1C(=O)N2C[C@H](O)C[C@@H]2C(=O)N[C@@H](CC(=O)O)C(=O)N[C@@H](C(C)C)C(=O)N(C)[C@@H](Cc2ccccc2)C(=O)N[C@@H](CCC(=O)O)C(=O)N2CCC[C@@H]2C(=O)N[C@@H](Cc2c[nH]c3ccccc23)C(=O)N[C@@H](Cc2ccc(O)cc2)C(=O)N[C@@H](CCOC)C(=O)N[C@H](C(=O)NCC(N)=O)CSCC(=O)N[C@@H](Cc2cc(F)c(F)c(F)c2)C(=O)N(C)[C@@H](Cc2ccccc2)C(=O)N1C [Example 10193] ({CH2CO}-[Phe(3,4,5-F3)][NMeF][NMeNle][d(cisHyp)]DV[NMeF]E[dP]WY[hSer](Me)CG-NH2; thioether N-13)
IC50 [1]: 1 to 9.9 nM

CCCC[C@H]1C(=O)N(C)[C@@H](CCCC)C(=O)N[C@@H](CC(=O)O)C(=O)N[C@H](C(=O)NCC(N)=O)CSCC(=O)N[C@@H](Cc2ccc(O)cc2)C(=O)N(C)[C@@H](C)C(=O)N[C@@H](CC(N)=O)C(=O)N2CCC[C@H]2C(=O)N[C@@H](Cc2c[nH]cn2)C(=O)N[C@@H](CCC(=O)O)C(=O)N2C[C@H](O)C[C@H]2C(=O)N[C@@H](Cc2c[nH]c3ccccc23)C(=O)N[C@@H](CCN)C(=O)N[C@@H](Cc2cn(CC(=O)O)c3ccccc23)C(=O)N1C [Example 5181] ({CH2CO}-Y[NMeA]NPHE[Hyp]W[Dab][Trp(1-CH2COOH)][NMeNle][NMeNle]DCG-NH2; thioether N-14)
IC50 [1]: 10 to 99.9 nM
